Consider one molecule from US20150265644A1, “THERAPEUTIC METHODS AND COMPOSITIONS FOR TREATING DIABETES UTILIZING DITERPENOID COMPOUNDS” (Orient Europharma Co., Ltd., priority 2014, published 2015).

One test concerns phosphor-AS160 (Thr^642). As to the kind of experiment: Western blot of liver, phospho-AS160. Type of test: in vivo. The settings on record: mice with type 1 DM, 10 mgkg^−1 i.p. twice a day for 7 days. How it is done:
(§1) After three days of acclimatization, the mice had free access to a standard rodent chow (normal mice), a standard rodent chow after single 250 mgkg^−1 streptozotocin (STZ) intraperitoneal injection (TIDM mice), and a fat-rich chow diet and fructose-sweetened water (T2DM mice) for 4 weeks. The induction of Type 1 DM was assessed and confirmed when the mice had plasma glucose levels ≧350 mgdL^−1, accompanied with polyuria, hyperphagia and decreased body weight. The induction Type 2 DM in the mice was assessed by measuring fasting plasma glucose levels and confirmed when plasma glucose level was ≧150 mgdL^−1 after the 4-week induction. […]
(§2) Western blot analysis was carried out by known methods with a slight modification. […] After centrifuging the homogenates at 10,000 g for 30 minutes, the protein concentrations were determined by using a BCA Protein Assay Kit (Pierce Biotechnology, Rockford, Ill.). […] The membranes were analysed by using the antibodies against phospho-insulin receptor β (IRβ) (Tyr^1345), phospho-Akt (Ser^473), phosphor-AS160 (Thr^642), AS160 (Cell Signaling Technology, Beverly, Mass.), IRβ, Akt, β-Actin (Santa Cruz Biotechnology, Santa Cruz, Calif.), GLUT2 (Abcam, Cambridge, UK), and PEPCK (a gift from Professor D K Granner), respectively. […] The intensity of each band was quantified with ImageQuant.
In general terms: A western blot detects proteins with antibodies after separation by electrophoresis.

The next test relates to GLUT2. As to the kind of experiment: Western blot of liver, GLUT2 expression. The class given is in vivo. Particulars: mice with type 1 DM, 10 mgkg^−1 i.p. twice a day for 7 days. How it is done: as §1, §2

On to `C[C@@]12C[C@@H](c3ccoc3)OC(=O)[C@@H]1C[C@@H]1OC(=O)[C@@]3(O)[C@@H](O[C@@H]4O[C@H](CO)[C@@H](O)[C@H](O)[C@H]4O)CC[C@@H]2[C@@]13C` [borapetoside A], for which the “phosphorylated AS160 in liver” value with phosphor-AS160 (Thr^642) is “increased”. Besides, the “expression of GLUT2 in liver” value with GLUT2 is “increased”.
